# Data from patent publication US11999727B2 (Tango Therapeutics, Inc., priority 2020, dated 2024).
# Where two headings read alike, the source gives them in different places.
# Key:
# PRMT5 [1] = target: T1, PRMT5 (Homo sapiens, UniProt O14744); test: PRMT5 biochemical IC50 assay with SAM as cofactor; settings: PRMT5, SAM as cofactor; read-out: SAM IC50
# T1 construct: purchased Viva (custom protein)
# PRMT5 [2] = target: T1, PRMT5; test: PRMT5 biochemical IC50 assay with no cofactor; settings: PRMT5, no cofactor
# From the text: Table 1 indicates IC50 values (μM) against PRMT5 for exemplary compounds in the presence of SAM as cofactor, with no cofactor, and with MTA as cofactor, respectively (columns 4-6). […] Ki values can be calculated from the IC50 values as described in the Examples section. As detailed in the Examples section, for the assay performed in the presence of SAM, IC50=Ki×1.5 (Ki=IC50/1.5).
# PRMT5 [3] = target: T1, PRMT5; test: PRMT5 biochemical IC50 assay with MTA as cofactor; settings: PRMT5, MTA as cofactor; read-out: MTA IC50
# [4] = tested on: HAP1 MTAP-intact cell line; test: SDMA in-cell western assay, HAP1 MTAP-intact; type: cell-based; settings: HAP1 MTAP-intact, read-out: MTAP HAP1 intact IC50
# Method in brief: (§1)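 Isogenic HAP1 pair: the MTAP-intact line expresses endogenous MTAP, and the deleted line is MTAP-null. Symmetric dimethylarginine was detected by in-cell western and IC50 values derived for each line.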
# [5] = tested on: HAP1 MTAP-deleted cell line; test: SDMA in-cell western assay, HAP1 MTAP-deleted; type: cell-based; settings: for IC50: HAP1 MTAP-deleted; for MTAP intact/deleted ratio: IC50 ratio HAP1 MTAP-intact / HAP1 MTAP-deleted
# Method in brief: as §1
# [6] = tested on: HAP1 MTAP-deleted cell line; test: Viability assay, MTAP-deleted cell line; type: cell-based; settings: MTAP-deleted cell line, read-out: HAP1 MTAP deleted viability
# From the text: Table 1 additionally indicates IC50 values in a viability assay for the MTAP-deleted cell line (column 10), indicating the effect of treatment with compound on cell survival.
# [7] = read-out: No Cofactor/ rel IC50
# [8] = Homo sapiens, HAP1, SDMA in-cell western
# [9] = Homo sapiens, HAP1, SDMA in-cell western, read-out: HAP 1 MTAP deleted IC50
# [10] = Homo sapiens, HAP1, viability assay
# [11] = Homo sapiens, HAP1, SDMA in-cell western, read-out: HAP1 MTAP deleted IC50
# [12] = SDMA in-cell western, read-out: HAP1 MTAP deleted IC50
# T1 sequence (O14744 whole entry): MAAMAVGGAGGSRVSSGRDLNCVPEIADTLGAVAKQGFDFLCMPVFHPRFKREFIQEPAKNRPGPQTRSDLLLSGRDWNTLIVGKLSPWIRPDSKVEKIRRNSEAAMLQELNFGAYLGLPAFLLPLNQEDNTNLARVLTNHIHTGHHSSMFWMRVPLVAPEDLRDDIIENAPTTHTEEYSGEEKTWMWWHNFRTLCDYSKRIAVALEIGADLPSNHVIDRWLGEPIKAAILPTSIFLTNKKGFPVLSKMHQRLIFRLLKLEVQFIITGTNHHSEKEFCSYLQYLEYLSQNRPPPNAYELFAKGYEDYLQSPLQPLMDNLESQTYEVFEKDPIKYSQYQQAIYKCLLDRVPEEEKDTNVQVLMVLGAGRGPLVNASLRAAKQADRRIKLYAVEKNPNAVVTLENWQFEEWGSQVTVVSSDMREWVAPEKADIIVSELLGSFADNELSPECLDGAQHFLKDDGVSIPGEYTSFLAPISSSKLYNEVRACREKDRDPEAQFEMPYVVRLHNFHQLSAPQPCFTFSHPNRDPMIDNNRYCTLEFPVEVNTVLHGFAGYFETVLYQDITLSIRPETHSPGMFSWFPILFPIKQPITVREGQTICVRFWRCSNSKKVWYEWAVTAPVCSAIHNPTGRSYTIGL
# T1 sequence (Q9BQA1 whole entry partner): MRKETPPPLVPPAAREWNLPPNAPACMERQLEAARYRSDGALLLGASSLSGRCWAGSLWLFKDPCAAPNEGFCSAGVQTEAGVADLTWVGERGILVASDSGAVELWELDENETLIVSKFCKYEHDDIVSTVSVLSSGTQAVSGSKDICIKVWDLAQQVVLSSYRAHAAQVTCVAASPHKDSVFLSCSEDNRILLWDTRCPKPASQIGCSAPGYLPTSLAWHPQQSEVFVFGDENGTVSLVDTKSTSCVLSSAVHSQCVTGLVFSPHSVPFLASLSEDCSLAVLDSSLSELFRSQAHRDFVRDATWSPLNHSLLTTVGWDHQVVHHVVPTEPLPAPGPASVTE
IC50 (PRMT5 [1]) [nM],IC50 (PRMT5 [2]; [7]) [nM],IC50 (PRMT5 [3]) [nM],"IC50 [4, 8] [nM]","IC50 [5, 9] [nM]",IC50 (PRMT5 [2]; read-out: No Cofactor/rel IC50) [nM],"IC50 [5, 11] [nM]","IC50 [5, 12] [nM]",IC50 ([4]; SDMA in-cell western) [nM],Structure (SMILES),MTAP intact/deleted ratio ([5]; SDMA in-cell western),"IC50 [6, 10] [nM]",IC50 ([6]; viability assay) [nM]
50 to 500,50 to 500,< 50,> 1000,< 100,,,,,"Cc1cc(NC(=O)C(=O)N2C[C@@H]3CC[C@@H](C3)[C@@H]2c2cccs2)cnc1N (single isomer, unassigned) [Compound 137]",A (an IC50 ratio greater than or equal to 10 fold),> 10000,
50 to 500,50 to 500,< 50,100 to 1000,< 100,,,,,"Cc1cc(NC(=O)C(=O)N2C[C@H](C)CC[C@H]2C2CCCCC2)cnc1N (single isomer, unassigned) [Compound 148]",A (an IC50 ratio greater than or equal to 10 fold),1000 to 10000,
50 to 500,,< 50,> 1000,,50 to 500,100 to 1000,,,"Cc1cc(NC(=O)C(=O)N2CCCC[C@H]2C(C)C)cnc1N (single isomer, unassigned) [Compound 192]",A (an IC50 ratio greater than or equal to 10 fold),> 10000,
50 to 500,,< 50,> 1000,,50 to 500,< 100,,,"CC1(C)CCC[C@@H]2CN(C(=O)C(=O)Nc3cncc(C(N)=O)c3)CC[C@H]21 (single isomer, unassigned) [Compound 193]",A (an IC50 ratio greater than or equal to 10 fold),1000 to 10000,
> 500,,> 500,> 1000,,> 500,> 1000,,,"NC(=O)c1cncc(NC(=O)C(=O)N2C[C@H]3CC[C@H](C3)[C@H]2c2ccccc2)c1 (single isomer, unassigned) [Compound 194]",C (an IC50 ratio of less than 3 fold),> 10000,
> 500,,> 500,> 1000,,> 500,> 1000,,,"Cc1ncc(NC(=O)C(=O)N2C[C@H](C)CC[C@H]2c2ccccc2)cc1C(N)=O (single isomer, unassigned) [Compound 196]",C (an IC50 ratio of less than 3 fold),> 10000,
50 to 500,,50 to 500,> 1000,,> 500,> 1000,,,"CC1(C)CCC[C@H]2CN(C(=O)C(=O)Nc3cncc(C(N)=O)c3)CC[C@@H]21 (single isomer, unassigned) [Compound 197]",C (an IC50 ratio of less than 3 fold),> 10000,
50 to 500,,< 50,100 to 1000,,< 50,< 100,,,"C[C@H]1CC[C@H](c2cccs2)N(C(=O)C(=O)Nc2cncc(C(N)=O)c2)C1 (single isomer, unassigned) [Compound 198]",A (an IC50 ratio greater than or equal to 10 fold),< 1000,
> 500,,50 to 500,> 1000,,> 500,,> 1000,,"COc1ncc(NC(=O)C(=O)N2CCCCC2c2ccccc2)cc1C(N)=O (single isomer, unassigned) [Compound 199, 2-methoxy-5-(2-oxo-2-(2-phenylpiperidin-1-yl)acetamido)nicotinamide]",C (an IC50 ratio of less than 3 fold),> 10000,
50 to 500,,< 50,> 1000,,50 to 500,< 100,,,"Cc1ncc(NC(=O)C(=O)N2C[C@@H](C)CC[C@@H]2c2ccccc2)cc1C(N)=O (single isomer, unassigned) [Compound 200]",A (an IC50 ratio greater than or equal to 10 fold),1000 to 10000,
> 500,,> 500,> 1000,,> 500,> 1000,,,"C[C@@H]1CC[C@@H](c2cccs2)N(C(=O)C(=O)Nc2cncc(C(N)=O)c2)C1 (single isomer, unassigned) [Compound 201]",C (an IC50 ratio of less than 3 fold),> 10000,
50 to 500,,< 50,,,50 to 500,,100 to 1000,> 1000,"COc1ncc(NC(=O)C(=O)N2CCCCC2c2ccccc2)cc1C(N)=O (single isomer, unassigned) [Compound 202, 2-methoxy-5-(2-oxo-2-(2-phenylpiperidin-1-yl)acetamido)nicotinamide]",A (an IC50 ratio greater than or equal to 10 fold),,> 10000
> 500,,50 to 500,> 1000,,> 500,> 1000,,,"Cc1cc(NC(=O)C(=O)N2CCCC[C@@H]2C(C)C)cnc1N (single isomer, unassigned) [Compound 204]",C (an IC50 ratio of less than 3 fold),> 10000,
50 to 500,,50 to 500,> 1000,,> 500,> 1000,,,"NC(=O)c1cncc(NC(=O)C(=O)N2C[C@@H]3CC[C@@H](C3)[C@@H]2c2ccccc2)c1 (single isomer, unassigned) [Compound 205]",B (an IC50 ratio greater than or equal to 3 fold but lower than 10 fold),> 10000,
50 to 500,,< 50,> 1000,,50 to 500,< 100,,,"C[C@H]1CC[C@H](C2CCC2)N(C(=O)C(=O)Nc2cncc(C(N)=O)c2)C1 (single isomer, unassigned) [Compound 211]",A (an IC50 ratio greater than or equal to 10 fold),1000 to 10000,
> 500,,> 500,> 1000,,> 500,> 1000,,,"C[C@@H]1CC[C@@H](C2CCC2)N(C(=O)C(=O)Nc2cncc(C(N)=O)c2)C1 (single isomer, unassigned) [Compound 216]",C (an IC50 ratio of less than 3 fold),> 10000,
50 to 500,,< 50,> 1000,,< 50,< 100,,,"Cc1cccc([C@H]2CC[C@H](C)CN2C(=O)C(=O)Nc2cncc(C(N)=O)c2)c1 (single isomer, unassigned) [Compound 219]",A (an IC50 ratio greater than or equal to 10 fold),1000 to 10000,
> 500,,> 500,> 1000,,> 500,> 1000,,,"Cc1cccc([C@@H]2CC[C@@H](C)CN2C(=O)C(=O)Nc2cncc(C(N)=O)c2)c1 (single isomer, unassigned) [Compound 227]",C (an IC50 ratio of less than 3 fold),> 10000,
> 500,,50 to 500,> 1000,,> 500,> 1000,,,"C[C@@H]1CC[C@@H]2CCCC[C@@H]2N1C(=O)C(=O)Nc1cncc(C(N)=O)c1 (single isomer, unassigned) [Compound 236]",B (an IC50 ratio greater than or equal to 3 fold but lower than 10 fold),> 10000,
50 to 500,,< 50,> 1000,,50 to 500,100 to 1000,,,"C[C@H]1CC[C@H]2CCCC[C@H]2N1C(=O)C(=O)Nc1cncc(C(N)=O)c1 (single isomer, unassigned) [Compound 245]",A (an IC50 ratio greater than or equal to 10 fold),1000 to 10000,
< 50,,< 50,> 1000,,50 to 500,100 to 1000,,,"Cc1cc(NC(=O)C(=O)N2C[C@H](C)CC[C@H]2c2ccccc2)cnc1C (single isomer, unassigned) [Compound 254]",A (an IC50 ratio greater than or equal to 10 fold),1000 to 10000,
> 500,,> 500,> 1000,,> 500,> 1000,,,"Cc1cc(NC(=O)C(=O)N2C[C@@H](C)CC[C@@H]2c2ccccc2)cnc1C (single isomer, unassigned) [Compound 258]",C (an IC50 ratio of less than 3 fold),> 10000,
